Assay results reported in US8598157B2, “5-alkynyl-pyridines” (Boehringer Ingelheim International GmbH, priority 2011, dated 2013).

Legend:
PI3Kalpha = PI3Kalpha (Homo sapiens (Human), UniProt P42336); experiment: Inhibition of PI3Kalpha-induced PIP-2 phosphorylation (filter-binding assay); format: biochemical; conditions: 33P-ATP, p85alpha/His-p110alpha, read-out: IC50 PI3Kα
Procedure, shortened: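 Radiometric filter-binding assay: PI3Kα (25 ng/well) preincubated 20 min at room temperature with compound and PIP2-containing lipid vesicles plus phosphotyrosine PDGFRβ peptide. Reaction started with cold ATP (1 μM final) and [33P]-ATP and run 120 min at room temperature; filter-captured radioactivity counted, IC50 from duplicate dilution series.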

H460 cells = experiment: alamarBlue H460 cell assay (antiproliferative/cytotoxicity); format: cell-based; conditions: NCI-H460; H460 human lung carcinoma cells
Procedure, shortened: (§1)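 Readout is alamarBlue reduction by metabolically active cells, measured fluorometrically (excitation 530-560 nm, emission 590 nm) after 8 h at 37 °C. Compounds are applied for 5-6 days from a top final concentration of 10 μM in 1:3 steps, tested in duplicate. EC50 is derived from blank-corrected signals.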

MB453 cells = experiment: alamarBlue MB453 cell assay (antiproliferative/cytotoxicity); format: cell-based; conditions: Homo sapiens; MDA MB 453 breast cancer cell line
Procedure, shortened: as §1

U87 cells = experiment: U87 cell assay (antiproliferative/cytotoxicity); format: cell-based; conditions: U-87MG human glioblastoma cells
Procedure, shortened: as §1

MCF7 cells = experiment: alamarBlue MCF7 cell assay (antiproliferative/cytotoxicity); format: cell-based; conditions: MCF7 human breast cancer cell line
Text: The H460, MB453, U87, MCF7 and BT474 alamarBlue cell assays provide EC50 values indicative of the antiproliferative or cytotoxic effects of the compounds to respectively the H460 (human non small cell line cancer), MB-453 (breast cancer cell line), U87 (glioblastoma cell line), MCF7 (breast cancer cell line) and BT474 (breast cancer cell line). As known in the field, antiproliferative or cytotoxic effect against this cell lines would be expected to be indicative of activity in treating lung, breast and brain cancers. See R. Marone R et al. Biochim. Biophys. Acta. 2008 January; 1784(1):159-85. S. Yaguchi et al., J. Natl. Cancer Inst. 2006 Apr. 19; 98(8):545-56.
Method Type: Antiproliferative/Cytotoxicity
alamarBlue® is designed to provide a rapid and sensitive measure of cell proliferation and cytotoxicity in various human and animal cell lines. The assay is based on the reduction of alamarBlue in the reducing environment of living (metabolically active) cells. In the presence of added cytotoxic or antiproliferative compounds, the innate metabolic activity ceases.
AlamarBlue is soluble and stable in culture medium. Measurements are made fluorometrically by exciting at 530-560 nm and measuring emission at 590 nm. In reporting percent alamarBlue reduction by monitoring fluorescence, data are expressed as fluorescence emission intensity units as a function of time of incubation.
3. Equipment • 96-well plates, flat bottom (Falcon, Cat. No.: 353072) • 96-well plates, U-shaped (Costar, Cat. No.: 3799) • CO2-Incubator • Microplate Reader, Spectramax Plus, Molecular Devices 4. Typical Procedure • Day 0: Seed 3000 BT-474 cells (IMDM/5% FCS, 1% NEAA, 1% Sodiumpyruvat) in 150 μl medium into a 96-well plate, flat bottom (include mediumblank). Incubate plates at 37° C. in a CO2 incubator overnight. • Day 1: Dilute compounds to a concentration 40 μM->1:3 in medium, 10 dilution steps, in 96-well plates. • Add 50 μl per well of each dilution (total volume per well 200 μl; final conc. of cpds: 10 μM->1:3). If required, test further dilutions. • All concentrations are tested in duplicates. • Controls: Cells w/o cpd. (+50 μl medium/DMSO). • Cells are incubated with compounds for 5-6 days. • Day 6 or 7: Add 25 μl of alamarBlue solution to each well and incubate for 8 hours at 37° C. Measure fluorescence by exciting at 530-560 nm and measuring emission at 590 nm. 5. Evaluation • Subtract average value for medium blank from sample readings • Calculate EC50 using GraphPad Prism (Fifty)

BT474 cells = experiment: alamarBlue BT474 cell assay (antiproliferative/cytotoxicity); format: cell-based; conditions: BT-474 human breast cancer cell line
Procedure, shortened: as §1

PI3Kalpha, sequence (P42336 whole entry): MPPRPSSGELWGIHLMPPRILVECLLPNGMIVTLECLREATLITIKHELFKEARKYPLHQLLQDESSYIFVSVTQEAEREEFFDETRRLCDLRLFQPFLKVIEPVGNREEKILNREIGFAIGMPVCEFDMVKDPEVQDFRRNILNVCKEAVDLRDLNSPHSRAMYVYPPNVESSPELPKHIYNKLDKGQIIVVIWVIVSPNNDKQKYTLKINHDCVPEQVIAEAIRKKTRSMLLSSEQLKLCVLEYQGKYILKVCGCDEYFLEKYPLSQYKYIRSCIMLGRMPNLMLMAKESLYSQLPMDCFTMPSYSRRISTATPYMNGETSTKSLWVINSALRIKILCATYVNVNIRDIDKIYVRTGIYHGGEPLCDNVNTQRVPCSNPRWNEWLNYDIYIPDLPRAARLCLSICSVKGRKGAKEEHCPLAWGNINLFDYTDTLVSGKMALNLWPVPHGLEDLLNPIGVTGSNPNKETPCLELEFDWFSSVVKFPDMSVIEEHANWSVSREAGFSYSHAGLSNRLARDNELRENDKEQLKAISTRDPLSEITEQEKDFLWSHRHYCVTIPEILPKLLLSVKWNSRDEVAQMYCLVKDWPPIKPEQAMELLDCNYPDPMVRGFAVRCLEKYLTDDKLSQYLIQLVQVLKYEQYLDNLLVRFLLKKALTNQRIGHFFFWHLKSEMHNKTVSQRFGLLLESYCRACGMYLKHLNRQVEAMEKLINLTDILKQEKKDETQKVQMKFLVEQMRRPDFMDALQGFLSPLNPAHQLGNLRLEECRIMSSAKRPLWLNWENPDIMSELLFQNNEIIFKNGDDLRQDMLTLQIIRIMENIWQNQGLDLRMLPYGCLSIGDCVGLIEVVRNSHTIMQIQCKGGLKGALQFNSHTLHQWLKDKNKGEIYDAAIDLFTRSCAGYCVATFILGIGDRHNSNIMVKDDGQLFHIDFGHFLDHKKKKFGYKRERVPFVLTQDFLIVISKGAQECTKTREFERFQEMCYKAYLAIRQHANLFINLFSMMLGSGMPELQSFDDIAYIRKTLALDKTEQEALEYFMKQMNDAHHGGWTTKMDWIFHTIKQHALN

SMILES | IC50 (PI3Kalpha) [nM] | EC50 (H460 cells) [nM] | EC50 (MB453 cells) [nM] | EC50 (U87 cells) [nM] | EC50 (MCF7 cells) [nM] | EC50 (BT474 cells) [nM]
Cc1ncc(C#Cc2c(C)ncnc2N(C)C2CCOCC2)cc1NS(=O)(=O)c1ccc(F)cc1F [Example I-16, 2,4-Difluoro-N-(2-methyl-5-{4-methyl-6-[methyl-(tetrahydro-pyran-4-yl)-amino]-pyrimidin-5-ylethynyl}-pyridin-3-yl)-benzenesulfonamide] | 0.86 | 226 | 397 | 839 | 118 | 309
CC(=O)N1CCN(c2ncnc(C)c2C#Cc2cnc(C)c(NS(=O)(=O)c3ccc(F)cc3F)c2)CC1 [Example I-17, N-{5-[4-(4-Acetyl-piperazin-1-yl)-6-methyl-pyrimidin-5-ylethynyl]-2-methyl-pyridin-3-yl}-2,4-difluoro-benzenesulfonamide] | 0.79 | 965 | 521 | 1890 | 73 | 354
Cc1ncnc(N2CCOCC2)c1C#Cc1cncc(NS(=O)(=O)c2ccccc2)c1 [Example I-19, N-[5-(4-Methyl-6-morpholin-4-yl-pyrimidin-5-ylethynyl)-pyridin-3-yl]-benzenesulfonamide] | 0.46 | 319 | 387 | 707 | 56 | 373
Cc1ncnc(N2CCOCC2)c1C#Cc1cncc(NS(=O)(=O)c2ccc(F)cc2F)c1 [Example I-20, 2,4-Difluoro-N-[5-(4-methyl-6-morpholin-4-yl-pyrimidin-5-ylethynyl)-pyridin-3-yl]-benzenesulfonamide] | 0.46 | 391 | 281 | 521 | 22 | 153
CCc1ncnc(N2CCOCC2)c1C#Cc1cnc(OC)c(NS(=O)(=O)c2ccc(F)cc2F)c1 [Example I-25, N-[5-(4-Ethyl-6-morpholin-4-yl-pyrimidin-5-ylethynyl)-2-methoxy-pyridin-3-yl]-2,4-difluoro-benzenesulfonamide] | 0.63 | 15 | 46 | 104 | 11 | 22
CCc1ncnc(N2CCOCC2)c1C#Cc1cnc(OC)c(NS(=O)(=O)c2ccccc2)c1 [Example I-26, N-[5-(4-Ethyl-6-morpholin-4-yl-pyrimidin-5-ylethynyl)-2-methoxy-pyridin-3-yl]-benzenesulfonamide] | 0.59 | 21 | 61 | 97 | 9 | 28
CCc1ncnc(N2CCN(C3CC3)CC2)c1C#Cc1cnc(C)c(NS(=O)(=O)c2ccc(F)cc2)c1 [Example I-28, N-{5-[4-(4-Cyclopropyl-piperazin-1-yl)-6-ethyl-pyrimidin-5-ylethynyl]-2-methyl-pyridin-3-yl}-4-fluoro-benzenesulfonamide] | 5 | 756 | 1850 | 14400 | 10000 | 10000
COc1ncc(C#Cc2c(C)ncnc2N2CCOCC2)cc1NS(=O)(=O)c1ccc(F)cc1F [Example I-29, 2,4-Difluoro-N-[2-methoxy-5-(4-methyl-6-morpholin-4-yl-pyrimidin-5-ylethynyl)-pyridin-3-yl]-benzenesulfonamide] | 0.44 | 11 | 28 | 84 | 3 | 10
Cc1ncc(C#Cc2c(C)ncnc2N2CCOCC2)cc1NS(=O)(=O)c1ccc(F)cc1 [Example I-30, 4-Fluoro-N-[2-methyl-5-(4-methyl-6-morpholin-4-yl-pyrimidin-5-ylethynyl)-pyridin-3-yl]-benzenesulfonamide] | 0.43 | 230 | 148 | 385 | 21 | 122
Cc1ncc(C#Cc2c(C)ncnc2N2CCOCC2)cc1NS(=O)(=O)c1cc(F)cc(F)c1 [Example I-31, 3,5-Difluoro-N-[2-methyl-5-(4-methyl-6-morpholin-4-yl-pyrimidin-5-ylethynyl)-pyridin-3-yl]-benzenesulfonamide] | 0.97 | 509 | 245 | 609 | 50 | 178
CCc1ncnc(N(C)C)c1C#Cc1cnc(C)c(NS(C)(=O)=O)c1 [Example I-32, N-[5-(4-Dimethylamino-6-ethyl-pyrimidin-5-ylethynyl)-2-methyl-pyridin-3-yl]-methanesulfonamide] | 8 | 1210 | 656 | 1290 | 617 | 1880
Cc1ncc(C#Cc2c(C)ncnc2N2CCOCC2)cc1NS(=O)(=O)C(C)C [Example I-38, Propane-2-sulfonic acid [2-methyl-5-(4-methyl-6-morpholin-4-yl-pyrimidin-5-ylethynyl)-pyridin-3-yl]-amide] | 2 | 829 | 642 | 836 | 304 | 1220

Further compounds by falling IC50 (PI3Kalpha), results first:

IC50 (PI3Kalpha) [nM] | SMILES | EC50 (H460 cells) [nM] | EC50 (MB453 cells) [nM] | EC50 (U87 cells) [nM] | EC50 (MCF7 cells) [nM] | EC50 (BT474 cells) [nM]
1 | Cc1ncc(C#Cc2c(C)ncnc2N2CCN(C)CC2)cc1NS(=O)(=O)c1ccc(F)cc1F [Example I-18, 2,4-Difluoro-N-{2-methyl-5-[4-methyl-6-(4-methyl-piperazin-1-yl)-pyrimidin-5-ylethynyl]-pyridin-3-yl}-benzenesulfonamide] | 269 | 418 | 358 | 72 | 221
1 | CCc1ncnc(N(C)C)c1C#Cc1cnc(C)c(NS(=O)(=O)c2ccc(F)cc2)c1 [Example I-27, N-[5-(4-Dimethylamino-6-ethyl-pyrimidin-5-ylethynyl)-2-methyl-pyridin-3-yl]-4-fluoro-benzenesulfonamide] | 791 | 1220 | 1620 | 10000 | 10000
1 | Cc1ncc(C#Cc2c(C)ncnc2N2CCOCC2)cc1NS(C)(=O)=O [Example I-37, N-[2-Methyl-5-(4-methyl-6-morpholin-4-yl-pyrimidin-5-ylethynyl)-pyridin-3-yl]-methanesulfonamide] | 903 | 318 | 966 | 134 | 416
0.8 | Cc1ncnc(N2CCOCC2)c1C#Cc1cncc(NS(=O)(=O)c2cccnc2)c1 [Example I-22, Pyridine-3-sulfonic acid [5-(4-methyl-6-morpholin-4-yl-pyrimidin-5-ylethynyl)-pyridin-3-yl]-amide] | 4500 | 1420 | 10000 | 1380 | 3410
0.66 | Cc1ncnc(N2CCOCC2)c1C#Cc1cncc(NS(=O)(=O)c2cnn(C)c2)c1 [Example I-23, 1-Methyl-1H-pyrazole-4-sulfonic acid [5-(4-methyl-6-morpholin-4-yl-pyrimidin-5-ylethynyl)-pyridin-3-yl]-amide] | 2180 | 1040 | 1750 | 214 | 3500
0.53 | Cc1ncnc(N2CCOCC2)c1C#Cc1cncc(NS(=O)(=O)c2cccs2)c1 [Example I-21, Thiophene-2-sulfonic acid [5-(4-methyl-6-morpholin-4-yl-pyrimidin-5-ylethynyl)-pyridin-3-yl]-amide] | 357 | 155 | 340 | 40 | 196
